Laboratory results published in PubChem BioAssay (NCI).
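Test compounds were applied to cells in 96-well plates for 48 hours at 5 doses. TGI is the concentration that stops growth completely.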

How the values were obtained:
Experiment in all cases: NCI-60 cell line screen, 48 h
[1] = tested on: RPMI-8226 leukemia
[2] = tested on: NCI/ADR-RES ovarian
[3] = tested on: HCC-2998 colon
[4] = tested on: SW-620 colon
[5] = tested on: OVCAR-5 ovarian
[6] = tested on: SF-295 CNS
[7] = tested on: UACC-257 melanoma
[8] = tested on: CCRF-CEM leukemia
[9] = tested on: HL-60(TB) leukemia
[10] = tested on: OVCAR-8 ovarian
[11] = tested on: ACHN renal
[12] = tested on: K-562 leukemia
[13] = tested on: TK-10 renal
[14] = tested on: A498 renal
[15] = tested on: UACC-62 melanoma
[16] = tested on: NCI-H460 lung
[17] = tested on: MALME-3M melanoma
[18] = tested on: RXF 393 renal
[19] = tested on: SK-MEL-2 melanoma
[20] = tested on: NCI-H23 lung
[21] = tested on: DU-145 prostate
[22] = tested on: COLO 205 colon
[23] = tested on: SF-268 CNS
[24] = tested on: HOP-92 NSCLC
[25] = tested on: A549 NSCLC
[26] = tested on: NCI-H522 lung
[27] = tested on: SK-OV-3 ovarian
[28] = tested on: 786-0 renal
[29] = tested on: U251 CNS
[30] = tested on: MCF7 breast
[31] = tested on: T-47D breast
[32] = tested on: LOX IMVI melanoma
[33] = tested on: M14 melanoma
[34] = tested on: NCI-H226 lung
[35] = tested on: UO-31 renal
[36] = tested on: OVCAR-3 ovarian
[37] = tested on: SNB-19 CNS
[38] = tested on: MDA-MB-231 breast
[39] = tested on: CAKI-1 renal
[40] = tested on: KM12 colon
[41] = tested on: HCT-15 colon
[42] = tested on: SF-539 CNS
[43] = tested on: SN12C renal
[44] = tested on: HCT-116 colon
[45] = tested on: SK-MEL-28 melanoma
[46] = tested on: EKVX NSCLC
[47] = tested on: MDA-N
[48] = tested on: SK-MEL-5 melanoma
[49] = tested on: SR leukemia
[50] = tested on: OVCAR-4 ovarian
[51] = tested on: HOP-62 NSCLC
[52] = tested on: HS 578T breast
[53] = tested on: MDA-MB-435
[54] = tested on: BT-549 breast
[55] = tested on: MOLT-4 leukemia
[56] = tested on: SNB-75 CNS
[57] = tested on: HT29 colon
[58] = tested on: PC-3 prostate
[59] = tested on: IGROV1 ovarian

Measured: TGI

CC(=O)Nc1ccc(N2C(=O)/C(=C\c3cccc(Oc4ccccc4)c3)SC2c2ccccc2)cc1 (configuration not stated)
76.1 µM: [45]
41.1 µM: [8]
97 µM: [43]
90.5 µM: [40]
56.4 µM: [49]
33.4 µM: [42]
34.8 µM: [10]
30.4 µM: [29]
58.3 µM: [1]
56.6 µM: [51]
58.4 µM: [26]
40.2 µM: [24]
66.3 µM: [52]
48.5 µM: [37]
34.3 µM: [32]
> 100 µM: [2] | [3] | [4] | [5] | [6] | [7] | [9] | [11] | [12] | [13] | [14] | [15] | [16] | [18] | [19] | [20] | [21] | [22] | [23] | [25] | [27] | [28] | [31] | [33] | [34] | [35] | [36] | [38] | [39] | [41] | [46] | [50] | [53] | [54]
42.3 µM: [47]
65.8 µM: [30]
68.6 µM: [48]
62.4 µM: [17]
68.5 µM: [55]
39.6 µM: [44]

CSCC[C@H]1C(=O)N=C(N)N1C(=O)OCc1ccccc1
46.5 µM: [26]
45.6 µM: [18]
51.5 µM: [55]
55.4 µM: [20]
84.1 µM: [34]
37.7 µM: [44]
60.9 µM: [54]
44.8 µM: [9]
33.9 µM: [4]
96.8 µM: [45]
> 100 µM: [56] | [1] | [2] | [3] | [57] | [5] | [6] | [7] | [10] | [11] | [13] | [14] | [16] | [17] | [19] | [21] | [23] | [28] | [29] | [30] | [32] | [35] | [36] | [37] | [38] | [40] | [41] | [43] | [46] | [47] | [48] | [50] | [51] | [53] | [58] | [59]
44.3 µM: [39]
39.7 µM: [22]
63.9 µM: [15]
71.9 µM: [12]
49.9 µM: [52]
55.8 µM: [49]

C=C(C)[C@@H]1CC[C@@]2(C)[C@H]1[C@H]1CCC3[C@@]4(C)CC[C@H](O)C(C)(C)[C@@H]4CC[C@@]3(C)[C@]1(C)C[C@@H]2O (some centres not stated)
84.9 µM: [53]
> 100 µM: [56] | [2] | [57] | [4] | [5] | [7] | [8] | [9] | [10] | [11] | [13] | [14] | [16] | [17] | [18] | [20] | [21] | [23] | [24] | [25] | [26] | [28] | [29] | [30] | [31] | [32] | [33] | [34] | [36] | [37] | [38] | [39] | [40] | [41] | [42] | [43] | [44] | [45] | [46] | [47] | [49] | [51] | [54] | [58] | [59] | [55]
57.2 µM: [48]
47.7 µM: [12]
80.6 µM: [6]

COc1ccc(NCC(=O)Nn2c(C)nc3ccc(S(=O)(=O)Nc4ccc(OC)cc4)cc3c2=O)cc1
> 100 µM: [56] | [1] | [2] | [3] | [57] | [4] | [5] | [6] | [7] | [8] | [9] | [10] | [11] | [12] | [13] | [15] | [16] | [17] | [19] | [20] | [21] | [22] | [23] | [24] | [25] | [26] | [27] | [28] | [29] | [30] | [32] | [33] | [34] | [35] | [36] | [37] | [38] | [39] | [40] | [41] | [42] | [43] | [44] | [45] | [46] | [47] | [49] | [50] | [51] | [52] | [53] | [54] | [58] | [59] | [55]
